Data published in patent US20220160651A1, “RAPIDLY IMPROVING ENDOTHELIAL FUNCTION, REDUCING ARTERIAL STIFFNESS AND REVERSING CALCIFICATION OF BLOOD VESSELS BY ADMINISTERING VITAMIN K” (KAYDENCE PHARMA AS, priority 2019, published 2022).

Assays:
ApoE/LDLR−/− mice [1] = assay: Histological assessment of plaque size and composition and vessel wall area in BCA (Example 2); type: in vivo; details: two months
Description: Plaque size and composition as well as vessel wall area (VWA) in BCA—Histological assessment, cross-section method, BCA cross-sections: total 13000 slides, Photographed: 1214 slides
For the determination of atherosclerotic plaque area and composition BCA was dissected, fixed in 4% buffered formalin and embedded in paraffin. 5 μm-thick serial sections of BCA were collected from proximal, middle and distal parts of artery. Originally developed staining with Unna's orcein combined with Martius, Scarlet and Blue trichrome (OMSB), was applied on every tenth section (50 μm interval between each section) for visualization of collagen, elastin, fibrin, red blood cells and vascular smooth muscle cells within atherosclerotic plaque. The areas of particular components of atherosclerotic plaque as well as artery lumen and wall were determined after Columbus-based software processing (FIG. 1B) using a previously developed algorithm [Gajda M, Jasztal A, Banasik T, Jasek-Gajda E, Chlopicki S. Combined orcein and martius scarlet blue (OMSB) staining for qualitative and quantitative analyses of atherosclerotic plaques in brachiocephalic arteries in apoE/LDLR−/− mice. Histochem Cell Biol 2017. doi:10.1007/s00418-017-1538-81.

ApoE/LDLR−/− mice [2] = assay: Nitrite and nitrate concentration in plasma, older mice (Example 3); type: in vivo; details: 0.03 and 10 mg/kg b.w./day, eight weeks
matrix gla protein (MGP) = assay: Clinical study: blood analysis of matrix gla protein carboxylation; type: in vivo, human; details: 360 ug/day, after 8 weeks of treatment, kidney transplant patients
Procedure: Participants were enrolled in a clinical trial in which the effects of vitamin K2 were determined for patients who had recently undergone a kidney transplant. At the beginning of the study, patients were subjected to a non-invasive pulse wave velocity measurement to measure arterial stiffness/flexibility, as well as blood analysis. The study participants were then instructed to receive a specific daily dose of MenaQ7 vitamin K2 menaquinone-7 (360 ug/day) for a total of 8 weeks. At the end of 8 weeks, patients were again examined with a follow-up examination, a non-invasive pulse wave velocity measurement and blood analysis and drug treatment was discontinued.
As part of the blood analysis, carboxylated matrix gla protein (MGP) was measured as a direct measure of vitamin K2 activity. The carboxylated MGP inhibits calcification of blood vessels and Vitamin K2 stimulates carboxylation of MGP.

[3] = test system: endothelial nitric oxide synthase (eNOS)-dependent nitric oxide (NO) production; assay: Endothelial NO production in ex vivo aorta by EPR spin-trapping; details: 0.05 mg/kg b.w./day, vs untreated age-matched mice
Description: For measurements of endothelial nitric oxide synthase (eNOS)-dependent nitric oxide (NO) production, EPR spin-trapping with diethyldithiocarbamic acid sodium salt (DETC) was used ex vivo, as described in Przyborowski K, Proniewski B, Czarny J, Smeda M, Sitek B, Zakrzewska A, et al. Vascular Nitric Oxide-Superoxide Balance and Thrombus Formation after Acute Exercise. Med Sci Sport Exerc 2018:1. doi:10.1249/MSS.0000000000001589, with minor modifications. Isolated aorta cleared from surrounding tissue was opened longitudinally and preincubated with 10 μM L-NIL (N6-(1-Iminoethyl)-lysine, hydrochloride) in Krebs-HEPES buffer for 30 minutes at 37° C. in a well of a 48-well plate. Next, 250 μL of Fe(DETC)2 colloid was added and aorta was stimulated with calcium ionophore A23187 (the final concentration was 1 μM) and subsequently, incubated for 90 minutes at 37° C. Finally, aorta was weighed and frozen in liquid nitrogen (suspended in fresh buffer) into the middle of a 400 μL column of Krebs-Hepes buffer and stored at −80° C. until measured. EPR spectra were obtained using an X-band EPR spectrometer (EMX Plus, Bruker, Germany), equipped with a rectangular resonator cavity H102. Signals were quantified by measuring the total amplitude of the NO-Fe(DETC)2 after correction of baseline. The quantitative results of NO production assessed by EPR were expressed in AU/mg of tissue.

SMILES: CC(C)=CCC/C(C)=C/CC/C(C)=C/CC/C(C)=C/CC/C(C)=C/CC/C(C)=C/CC/C(C)=C/CC1=C(C)C(=O)c2ccccc2C1=O [MK-7, menaquinone-7]
- decrease in vessel wall area (VWA) of BCA (ApoE/LDLR−/− mice [1]; low and high dose (0.03 and 10 mg/kg b.w./day)): about 5%
- decrease of lipid core expressed as percent of plaque (ApoE/LDLR−/− mice [1]; low and high dose): about 17%
- effect on plaque size (ApoE/LDLR−/− mice [1]; low or high dose): did not result in a beneficial effect on plaque size
- plaque and lumen area expressed as percent of IWA (ApoE/LDLR−/− mice [1]; low or high dose): did not change
- internal wall area (IWA) (ApoE/LDLR−/− mice [1]; lower dose 0.03 mg/kg b.w./day): decreased only in the middle part of the vessel
- content of collagen in plaque (ApoE/LDLR−/− mice [1]; treated vs untreated groups): lack of differences between treated and untreated groups
- concentration of NO3− in plasma (ApoE/LDLR−/− mice [2]): did not change significantly
- mean reduction of levels of uncarboxylated MGP (matrix gla protein (MGP)): 55%
- nitric oxide production in ex vivo aorta by EPR [3]: increased nitric oxide production
